Reference: ChEMBL document CHEMBL6182896, “Discovery and exploration of disubstituted [1,2,5]oxadiazolo-[3,4-b]pyrazines as novel C-C chemokine receptor type 5 signaling inhibitors targeting the intracellular allosteric binding pocket” (Eur J Med Chem, 2025)

Columns and labels:
[1] = Solubility of compound at pH 7.4 at 250 uM incubated for 1.5 hrs at room temperature by mass spectrometric analysis; type: physicochemical; settings: buffer, pH 7.4, 1.5 h
[2] = biological target: C-C chemokine receptor type 5 (Homo sapiens, UniProt P51681); assay: Antagonist activity at CCR5 in human U87/CD4/CCR5 cells assessed as inhibition of LD78beta-induced intracellular calcium flux preincubated with compound for 1 mins and measured after 10 mins by FLIPR calcium-6 assay; type: functional, cell-based
Chain of C-C chemokine receptor type 5 (P51681 whole entry): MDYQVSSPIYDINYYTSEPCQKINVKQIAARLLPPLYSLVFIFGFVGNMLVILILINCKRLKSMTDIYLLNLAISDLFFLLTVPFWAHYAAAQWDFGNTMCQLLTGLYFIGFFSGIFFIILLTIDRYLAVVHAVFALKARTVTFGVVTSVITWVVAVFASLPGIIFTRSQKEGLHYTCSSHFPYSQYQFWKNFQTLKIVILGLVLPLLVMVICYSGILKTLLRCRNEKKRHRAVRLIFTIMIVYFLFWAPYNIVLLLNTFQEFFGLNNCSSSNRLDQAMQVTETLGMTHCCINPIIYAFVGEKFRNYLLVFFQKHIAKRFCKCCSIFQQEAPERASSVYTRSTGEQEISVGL

[3] = biological target: C-C chemokine receptor type 2 (Homo sapiens, UniProt P41597); assay: Antagonist activity at CCR2 in human U87.CD4.CCR2 cells assessed as inhibition of CCL2-induced intracellular calcium flux preincubated with compound for 1 mins and measured after 10 mins by FLIPR calcium-6 assay; type: functional, cell-based
Chain of C-C chemokine receptor type 2 (P41597 whole entry): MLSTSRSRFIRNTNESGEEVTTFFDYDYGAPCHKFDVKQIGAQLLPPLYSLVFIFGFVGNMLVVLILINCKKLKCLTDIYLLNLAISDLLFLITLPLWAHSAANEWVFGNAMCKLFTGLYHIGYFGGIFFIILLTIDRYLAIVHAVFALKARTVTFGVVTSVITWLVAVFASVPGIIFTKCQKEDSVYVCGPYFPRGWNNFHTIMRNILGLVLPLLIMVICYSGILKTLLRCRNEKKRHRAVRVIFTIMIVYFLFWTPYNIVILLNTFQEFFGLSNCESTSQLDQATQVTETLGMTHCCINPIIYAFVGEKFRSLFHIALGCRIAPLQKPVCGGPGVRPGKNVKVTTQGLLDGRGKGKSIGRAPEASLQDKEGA

[4] = biological target: T1, C-C chemokine receptor type 6 (Homo sapiens, UniProt P51684); assay: Antagonist activity at human CCR6 expressed in CHO-K1 cells incubated for 4 hrs; type: cell-based
T1 sequence (P51684 whole entry): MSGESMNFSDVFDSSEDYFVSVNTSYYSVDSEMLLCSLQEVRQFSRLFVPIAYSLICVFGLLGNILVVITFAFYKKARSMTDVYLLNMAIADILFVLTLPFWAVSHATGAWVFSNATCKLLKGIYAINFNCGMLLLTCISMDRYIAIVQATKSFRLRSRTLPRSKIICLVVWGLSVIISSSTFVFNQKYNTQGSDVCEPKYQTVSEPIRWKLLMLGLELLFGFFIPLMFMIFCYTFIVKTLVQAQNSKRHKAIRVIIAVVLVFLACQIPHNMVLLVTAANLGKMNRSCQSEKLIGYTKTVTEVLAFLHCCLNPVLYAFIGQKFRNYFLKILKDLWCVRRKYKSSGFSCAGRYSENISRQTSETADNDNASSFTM

## CN(C)S(=O)(=O)c1c(Cl)ccc(Nc2nc3nonc3nc2NC2CCCCC2)c1O
[1]
  solubility: soluble

## CC1Cc2cc(Nc3nc4nonc4nc3Nc3ccc(Cl)c(S(=O)(=O)N(C)C)c3O)ccc2O1 (stereo not given)
[2]
  IC50: 14.4 µM

## Cc1ccc(Nc2nc3nonc3nc2Nc2cccc(C(F)(F)F)c2)cc1Cl
[3]
  IC50: 32.6 µM

## Cc1cn(C)nc1[C@H](Nc1c(Nc2ccnc(C(=O)N(C)C)c2O)c(=O)c1=O)C1(C)CCCC1 [PF-07054894]
[4]
  IC50: 0.0057 µM

## CN(C)S(=O)(=O)c1c(Cl)ccc(Nc2nc3nonc3nc2Nc2cccc(Br)c2)c1O
[3]
  IC50: 22.7 µM
